The supplement of paper PMC11061612

What was measured:
Experiment in all cases: combination Emax (second highest fraction inhibited in the dose matrix, 72 h); higher = more inhibition; extreme values may be limits of the assay
[1] = system: 639-V (Bladder Carcinoma)
Outline: (§1)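 After 24 hours at 37°C and 5% CO2 in 1536-well plates, cells in DMEM/F12 or RPMI plus 10% FBS received two-drug dose matrices for 72 hours. Viability came from CellTiter-Glo 2.0 luminescence and was scaled as inhibition, anchored at 0 by vehicle wells and at 1 by blank wells. Combination Emax is taken as the second-highest inhibition in the matrix, and Bliss excess as the observed combination effect less EA + EB − EA·EB, with EA and EB the single-agent effects.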

[2] = system: 8305C (Thyroid Gland Carcinoma)
Outline: as §1

[3] = system: CAL-54 (Kidney Carcinoma)
Outline: as §1

[4] = system: CTB-1 (B-Cell Non-Hodgkin's Lymphoma)
Outline: as §1

[5] = system: HARA (Squamous Cell Lung Carcinoma)
Outline: as §1

[6] = system: HO-1-u-1 (Oral Cavity Carcinoma)
Outline: as §1

[7] = system: K5 (Thyroid Gland Carcinoma)
Outline: as §1

[8] = system: KYSE-410 (Esophageal Squamous Cell Carcinoma)
Outline: as §1

[9] = system: LB771-HNC (Head and Neck Carcinoma)
Outline: as §1

[10] = system: LU-139 (Small Cell Lung Carcinoma)
Outline: as §1

[11] = system: MDA-MB-468 (Breast Carcinoma)
Outline: as §1

[12] = system: MHH-PREB-1 (B-Cell Non-Hodgkin's Lymphoma)
Outline: as §1

NB14 (Neuroblastoma) = system: NB14 (Neuroblastoma)
Outline: as §1

NCI-H2795 (Mesothelioma) = system: NCI-H2795 (Mesothelioma)
Outline: as §1

NCI-H28 (Mesothelioma) = system: NCI-H28 (Mesothelioma)
Outline: as §1

[13] = system: OVCAR-8 (Ovarian Carcinoma)
Outline: as §1

[14] = system: PCI-30 (Head and Neck Carcinoma)
Outline: as §1

[15] = system: SW1116 (Colorectal Carcinoma)
Outline: as §1

[16] = system: SW1271 (Small Cell Lung Carcinoma)
Outline: as §1

[17] = system: SW626 (Colorectal Carcinoma)
Outline: as §1

Compound	combination Emax [1]	combination Emax [2]	combination Emax [3]	combination Emax [4]	combination Emax [5]	combination Emax [6]	combination Emax [7]	combination Emax [8]	combination Emax [9]	combination Emax [10]	combination Emax [11]	combination Emax [12]	combination Emax (NB14 (Neuroblastoma))	combination Emax (NCI-H2795 (Mesothelioma))	combination Emax (NCI-H28 (Mesothelioma))	combination Emax [13]	combination Emax [14]	combination Emax [15]	combination Emax [16]	combination Emax [17]
COc1cccc(OCCCN)c1-c1cc(Nc2cnc(C#N)cn2)n[nH]1 [Prexasertib] + CCc1c2c(nc3ccc(O)cc13)-c1cc3c(c(=O)n1C2)COC(=O)[C@]3(O)CC [SN-38] (first compound max 1 µM, 7x7, partner max 0.3 µM)	1	0.823	0.855	0.934	0.966	0.996	0.628	0.705	0.647	0.899	0.817	0.96	1	0.813	0.616	1	0.966	0.763	0.769	0.819
Cc1c2c(nn1C)CSCc1cc(n(C)n1)CSc1cc(c3ccccc3c1)OCCCc1c(C(=O)O)n(C)c3c-2c(Cl)ccc13 [AZD5991] + C[C@@H](Nc1cc(F)cc(F)c1)c1cc(C(=O)N(C)C)cc2c(=O)cc(N3CCOCC3)oc12 [AZD8186] (first compound max 1 µM, 7x7, partner max 3 µM)	0.421	0.588	0.602	0.384	0.412	0.279	0.362	0.221	0.486	0.174	0.605	0.214	0.898	0.926	0.298	0.268	0.264	0.17	0.207	0.223
Cc1c2c(nn1C)CSCc1cc(n(C)n1)CSc1cc(c3ccccc3c1)OCCCc1c(C(=O)O)n(C)c3c-2c(Cl)ccc13 [AZD5991] + Cc1cc2ncnn2cc1Nc1ncc2c(n1)n(C1CCOCC1)c(=O)n2C [AZD7648] (first compound max 1 µM, 7x7, partner max 10 µM)	0.298	0.432	0.367	0.472	0.394	0.418	0.351	0.229	0.571	0.243	0.462	0.175	0.72	0.941	0.298	0.225	0.323	0.168	0.305	0.224
C=CCn1c(=O)c2cnc(Nc3ccc(N4CCN(C)CC4)cc3)nc2n1-c1cccc(C(C)(C)O)n1 [AZD1775] + C[C@@H]1COCCN1C2=NC(=NC(=C2)C3(CC3)[S@](=N)(=O)C)C4=C5C=CNC5=NC=C4 [AZD6738] (first compound max 1 µM, partner max 10 µM)	0.457	0.681	0.759	0.944	0.906	0.973	0.749	0.499	0.536	0.721	0.634	0.948	1	0.803	0.618	0.966	0.696	0.506	0.637	0.743
Cc1c2c(nn1C)CSCc1cc(n(C)n1)CSc1cc(c3ccccc3c1)OCCCc1c(C(=O)O)n(C)c3c-2c(Cl)ccc13 [AZD5991] + CCN(CCO)CCCOc1ccc2c(Nc3cc(CC(=O)Nc4cccc(F)c4)[nH]n3)ncnc2c1 [AZD2811] (first compound max 1 µM, 7x7, partner max 1 µM)	0.368	0.365	0.234	0.641	0.776	0.657	0.298	0.265	0.591	0.409	0.738	0.144	0.953	0.762	0.342	0.42	0.284	0.256	0.176	0.325
COc1cccc(OCCCN)c1-c1cc(Nc2cnc(C#N)cn2)n[nH]1 [Prexasertib] + O=C(c1cc(Cc2n[nH]c(=O)c3ccccc23)ccc1F)N1CCN(C(=O)C2CC2)CC1 [Olaparib] (first compound max 1 µM, 7x7, partner max 10 µM)	0.868	0.785	0.792	0.876	0.964	0.936	0.634	0.382	0.568	0.442	0.603	0.866	0.986	0.674	0.597	0.966	0.548	0.565	0.686	0.64
